Measured values from ChEMBL document CHEMBL5226309, “Synthetic RNA Modulators in Drug Discovery” (J Med Chem, 2021).
Blank lines part the entries; values can stand above or below the compound they belong to.

What was measured:
[1] = Inhibition of 5'FAM-labeled and 3'DAB-labeled Precursor microRNA-372 (unknown origin) assessed as inhibition of Dicer-induced pre-miR-372 cleavage by measuring fluorescence incubated for 30 min in presence of human recombinant Dicer by FRET Dicer assay
[2] = Inhibition of 5'FAM-labeled and 3'DAB-labeled Precursor microRNA-373 (unknown origin) assessed as inhibition of Dicer-induced pre-miR-373 cleavage by measuring fluorescence incubated for 30 min in presence of human recombinant Dicer by FRET Dicer assay
AGS [3] = assay: Antiproliferative activity against human AGS cells assessed as reduction in cell viability at 25 uM measured after 4 days by CellTiter96 assay relative to control; type: functional; conditions: 96 h, time 4 day
[4] = target: T1, Muscleblind-like protein 1 (Homo sapiens) (UniProt Q9NR56); assay: Inhibition of MBNL1 (unknown origin) in human GDM-1 cells assessed as rescue of IR exon splicing defect at 100 pM by PCR analysis relative to control; type: cell-based
T1 sequence (whole entry): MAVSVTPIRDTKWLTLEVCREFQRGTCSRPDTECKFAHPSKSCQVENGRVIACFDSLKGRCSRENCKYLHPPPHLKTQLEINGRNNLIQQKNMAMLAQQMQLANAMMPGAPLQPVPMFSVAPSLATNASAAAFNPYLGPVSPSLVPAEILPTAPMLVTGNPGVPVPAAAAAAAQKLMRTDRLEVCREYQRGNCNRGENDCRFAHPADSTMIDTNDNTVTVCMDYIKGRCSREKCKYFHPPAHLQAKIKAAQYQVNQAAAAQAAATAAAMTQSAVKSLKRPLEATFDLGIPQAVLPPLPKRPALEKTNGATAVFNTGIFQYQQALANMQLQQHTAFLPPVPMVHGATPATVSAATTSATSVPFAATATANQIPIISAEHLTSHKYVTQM

[5] = Upregulation of miR-122 expression in human Huh-7 cells at 10 uM incubated for 48 hrs by RT-PCR analysis relative to control; type: functional
[6] = Binding affinity to pre-miR-21 (unknown origin) assessed as dissociation constant by Monolith NT.115 microscale thermophoresis based analysis
A498 = assay: Antiproliferative activity against human A498 cells assessed as reduction in cell viability by XTT assay; type: functional, cell-based
[7] = Antiproliferative activity against human U87 cells assessed as reduction in cell viability by XTT assay; type: functional, cell-based, U-87MG ATCC; conditions: U-87 MG
HeLa = assay: Inhibition of miR-21 in human HeLa cells assessed as reduction in relative light unit at 10 uM by luciferase reporter assays relative to control; type: cell-based
[8] = Inhibition of miR-21 in human MDA-MB-231 cells; type: cell-based
MDA-MB-231 = assay: Inhibition of miR-21 in human MDA-MB-231 cells assessed as decrease in pre-miR-21 level at 50 nM relative to control; type: cell-based
A-375 = assay: Inhibition of miR-21 in human A-375 cells assessed as decrease in pre-miR-21 level at 50 nM relative to control; type: cell-based
A549 = assay: Inhibition of miR-21 in human A549 cells assessed as decrease in pre-miR-21 level at 50 nM relative to control; type: cell-based
[9] = Binding affinity to miR-21 (unknown origin) at 5 uM by differential scanning fluorometry analysis relative to control
[10] = Binding affinity to miR-21 (unknown origin) assessed as dissociation constant
AGS [11] = assay: Inhibition of miR-21 in human AGS cells assessed as decrease in pre-miR-21 level relative to control; type: cell-based; conditions: dose or concentration not given here
[12] = Inhibition of miR-21 in human AGS cells assessed as decrease in pre-miR-21 level; type: cell-based
HEK293 = assay: Inhibition of miR-125a in human HEK293 cells relative to control; type: cell-based; conditions: dose or concentration not given here
[13] = Inhibition of miR-21 (unknown origin) at 1 uM by differential scanning fluorometry analysis relative to control
[14] = Downregulation of alpha-Synuclein level in human SH-SY5Y cells at 5 uM relative to control; type: functional
[15] = Downregulation of miR-122 expression in human Huh-7 cells at 10 uM incubated for 48 hrs by RT-PCR analysis relative to control; type: functional
Hepatitis C virus = assay: Antiviral activity against HCV JFH-1 infected in human Huh-7 cells assessed as reduction in viral replication measured after 48 hrs by RT-PCR analysis relative to control; type: functional, Hepacivirus hominis; parameters: scale not given: the % may be the effect or the level left
[16] = Binding affinity to Precursor microRNA-96 (unknown origin) assessed as dissociation constant
[17] = Inhibition of Precursor microRNA-96 (unknown origin) relative to control; conditions: concentration not given here
[18] = Binding affinity to DNA hairpin (unknown origin) assessed as dissociation constant

SMILES: NC[C@@H]1O[C@H](O[C@H]2[C@@H](O)[C@H](O[C@@H]3[C@@H](O)[C@H](N)C[C@H](N)[C@H]3O[C@H]3O[C@H](CN)[C@@H](O)[C@H](O)[C@H]3N)O[C@@H]2Cn2cc(CCC(=O)Nc3ccc(-c4csc(NC(=O)c5ccc(Cl)cc5)n4)cc3)nn2)[C@H](N)[C@@H](O)[C@@H]1O
IC50 [1]: 980 nM
IC50 [2]: 2190 nM
inhibition at 25 µM (AGS [3]): 50%

SMILES: CN(C)CCN1C(=O)c2cccc3cc(N)cc(c23)C1=O [AMONAFIDE]
Activity [5]: 450%

SMILES: CCCN(CC(=O)N(CCC)CC(=O)N(CCC)CC(=O)N(CC(=O)O)Cc1cn(CCCNC(=O)CCCOc2ccc(-c3nc4ccc(-c5ccc(N6CCN(C)CC6)cc5)cc4[nH]3)cc2)nn1)C(=O)CNCc1cn(CCCNC(=O)CCCOc2ccc(-c3nc4ccc(-c5ccc(N6CCN(C)CC6)cc5)cc4[nH]3)cc2)nn1
Kd [6]: 980 nM

SMILES: NC[C@@H]1O[C@H](O[C@H]2[C@@H](O)[C@H](O[C@@H]3[C@@H](O)[C@H](N)C[C@H](N)[C@H]3O[C@H]3O[C@H](CN)[C@@H](O)[C@H](O)[C@H]3N)O[C@@H]2Cn2cc(CCC(=O)Nc3ccc(-c4csc(NC(=O)c5ccc(N)cc5)n4)cc3)nn2)[C@H](N)[C@@H](O)[C@@H]1O
IC50 [1]: 1080 nM
IC50 [2]: 1100 nM

SMILES: C#CCOc1ccc(-c2noc(-c3nnn(-c4cccc(/C(C)=N/O)c4)c3N)n2)cc1
IC50 (A498): 100000 nM
IC50 [7]: 3300 nM
RLU (HeLa): 2.19

SMILES: NC[C@H]1O[C@H](O[C@H]2[C@H](O)[C@@H](O[C@H]3O[C@H](CNC(=O)CCC(=O)N[C@@H](Cc4ccccc4)C(=O)N[C@@H](CS)C(N)=O)[C@@H](O)[C@H](N)[C@H]3O)[C@H](N)C[C@@H]2N)[C@H](O)[C@@H](O)[C@@H]1O
Activity [9]: 140%
Kd [10]: 4.36 nM

SMILES: CCn1cc(C(=O)NC(C)(C)C)c(=O)c2cc(F)c(N3CCNCC3)nc21
inhibition (HEK293): 20%

SMILES: c1cc(C2=NCCN2)ccc1Oc1ccc(-c2cc3ccc(C4=NCCN4)cc3[nH]2)cc1
Activity [14]: 40%

SMILES: O=S(=O)(c1ccc2c(c1)CCCN2)N1CCC[C@@H]2CCCC[C@H]21
Activity [15]: 45%
Activity (Hepatitis C virus): 47%

SMILES: N#Cc1ccc(Nc2ccc(-c3nc4ccc(C#N)cc4[nH]3)cc2)cc1
Activity [14]: 40%

Continued, in another order:

inhibition [4]: 100%
SMILES: C#CC(=O)NCCCCCC(=O)N(CCN(C)C(=O)CCCOc1cccc(-c2nc3ccc(-c4nc5ccc(N6CCN(C)CC6)cc5[nH]4)cc3[nH]2)c1)CC(=O)N(C)[C@@H](C)C(=O)N(C)[C@@H](C)C(=O)N(C)[C@@H](C)C(=O)N(CCCCN(C)C(=O)CCCOc1cccc(-c2nc3ccc(-c4nc5ccc(N6CCN(C)CC6)cc5[nH]4)cc3[nH]2)c1)CC(=O)N(CCCN=[N+]=[N-])CC(N)=O

IC50 [8]: 50 nM
SMILES: CCCN(CC(=O)N(CCC)CC(=O)N(CCC)CC(=O)N(CC(=O)NCCOCCOCCOCCOc1ccc(/C=C2\SC(Nc3ccccc3)=C(C(=O)OCC)C2=O)cc1O)Cc1cn(CCCNC(=O)CCCOc2ccc(-c3nc4ccc(-c5ccc(N6CCN(C)CC6)cc5)cc4[nH]3)cc2)nn1)C(=O)CNCc1cn(CCCNC(=O)CCCOc2ccc(-c3nc4ccc(-c5ccc(N6CCN(C)CC6)cc5)cc4[nH]3)cc2)nn1
inhibition (MDA-MB-231): 50%
inhibition (A-375): 50%
inhibition (A549): 50%

IC50 [12]: 2420 nM
SMILES: CC(=O)Nc1csc(-c2cccc(NC(=O)CCc3cn(C[C@H]4O[C@@H](O[C@@H]5[C@@H](O)[C@H](N)C[C@H](N)[C@H]5O[C@H]5O[C@H](CN)[C@@H](O)[C@H](O)[C@H]5N)[C@H](O)[C@@H]4O[C@H]4O[C@@H](CN)[C@@H](O)[C@H](O)[C@H]4N)nn3)c2)n1
inhibition (AGS [11]): 100%

inhibition [13]: 90%
SMILES: NC[C@@H]1O[C@H](O[C@H]2[C@@H](O)[C@H](O[C@@H]3[C@@H](O)[C@H](N)C[C@H](N)[C@H]3O[C@H]3O[C@H](CN)[C@@H](O)[C@H](O)[C@H]3N)O[C@@H]2CSCCNC(=O)CCCCCn2cc(COc3ccc4c(c3)C(=O)N(O)C(=O)C4)nn2)[C@H](N)[C@@H](O)[C@@H]1O

Kd [16]: 85 nM
inhibition [17]: 50%
Kd [18]: > 50000 nM
SMILES: CCCN(CC(=O)N(CCC)CC(=O)N(CC(N)=O)Cc1cn(CCCNC(=O)CCCOc2c(C(C)(C)C)cc(-c3nc4cc(N5CCN(C)CC5)ccc4[nH]3)cc2C(C)(C)C)nn1)C(=O)CCCOc1cccc(-c2nc3ccc(-c4nc5ccc(N6CCN(C)CC6)cc5[nH]4)cc3[nH]2)c1
